# How the values were obtained:
# ACAT in J774 cells = molecular target: T1, ACAT in J774 cells (Mus musculus, UniProt Q61263); assay: Test for inhibitory activity against ACAT using J774 cells; type: cell-based; settings: 100 nM of each compound, Mean ± S.D., n = 3, vs DMSO control, read-out: Inhibition rate against ACAT activity in J774 cells
# T1 construct: endogenous in cells; host or cells: J774 cells (mouse macrophage-like)
# T1 sequence (Q61263 1-540): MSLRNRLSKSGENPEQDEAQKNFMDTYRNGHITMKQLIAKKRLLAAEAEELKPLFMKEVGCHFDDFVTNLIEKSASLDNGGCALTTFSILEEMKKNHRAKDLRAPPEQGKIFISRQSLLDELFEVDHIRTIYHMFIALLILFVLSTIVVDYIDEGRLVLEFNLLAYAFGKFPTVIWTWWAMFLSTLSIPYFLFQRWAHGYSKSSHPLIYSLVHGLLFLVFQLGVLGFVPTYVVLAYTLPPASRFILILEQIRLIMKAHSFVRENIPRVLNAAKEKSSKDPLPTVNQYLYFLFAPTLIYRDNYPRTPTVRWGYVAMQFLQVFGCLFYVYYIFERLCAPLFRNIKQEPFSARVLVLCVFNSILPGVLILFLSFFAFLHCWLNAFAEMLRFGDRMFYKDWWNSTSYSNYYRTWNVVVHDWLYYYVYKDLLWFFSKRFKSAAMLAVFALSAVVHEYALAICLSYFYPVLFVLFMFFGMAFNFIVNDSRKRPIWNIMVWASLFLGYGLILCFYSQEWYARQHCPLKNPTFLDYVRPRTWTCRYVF
# Experimental: i) Test for inhibitory activity against ACAT using J774 cells:
# The ACAT activity of J774 cells was measured as the radioactivity of cholesteryl oleate produced from [^14 C]oleic acid and cholesterol which were added to a culture solution.
# The extract was dried to solid under reduced pressure. After the resultant residue was then developed (developing solvent: diethyl ether/hexane/acetic acid=80/20/1) by TLC (thin-layer chromatography), the amount of cholesteryl oleate formed was determined by an imaging plate.
# [1] = molecular target: T2, ACAT of rat liver microsomes (Rattus norvegicus, UniProt Q7TQM4); assay: Test for inhibitory activity against ACAT using rat liver microsomes; type: biochemical; settings: 5 min; 100 nM of each compound; Mean ± S.D.; n = 3; vs DMSO control; read-out: Inhibition rate against ACAT activity in rat liver microsome
# T2 construct: rat liver microsome fraction prepared in accordance with a method known per se; from tissue; host or cells: rat liver microsomes
# T2 sequence (Q7TQM4 1-524): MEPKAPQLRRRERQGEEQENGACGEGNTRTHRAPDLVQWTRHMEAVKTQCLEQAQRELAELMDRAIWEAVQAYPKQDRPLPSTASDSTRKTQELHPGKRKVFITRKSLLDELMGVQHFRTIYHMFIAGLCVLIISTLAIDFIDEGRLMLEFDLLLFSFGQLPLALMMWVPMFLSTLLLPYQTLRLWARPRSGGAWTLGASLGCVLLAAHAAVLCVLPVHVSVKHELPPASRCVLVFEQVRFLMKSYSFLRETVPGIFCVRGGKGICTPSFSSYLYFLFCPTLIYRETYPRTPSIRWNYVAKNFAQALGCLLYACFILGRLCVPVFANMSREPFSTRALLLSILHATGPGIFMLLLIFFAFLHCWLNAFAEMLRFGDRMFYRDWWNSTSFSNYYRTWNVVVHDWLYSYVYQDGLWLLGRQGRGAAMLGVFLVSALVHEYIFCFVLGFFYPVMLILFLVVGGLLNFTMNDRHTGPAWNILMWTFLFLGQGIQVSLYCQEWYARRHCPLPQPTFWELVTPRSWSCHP
# Experimental: More specifically, [^14 C]oleoyl-CoA and delipidized BSA were added to a rat liver microsome fraction prepared in accordance with a method known per se in the art to conduct a reaction at 37° C. for 5 minutes. After the reaction, the lipid in the reaction mixture was extracted with hexane, and the extract was dried to solid under reduced pressure.
structure (smiles),measurement,setting,value
"CC(C)c1cccc(C(C)C)c1NC(=O)NCc1cccc(OCc2ccc([N+](=O)[O-])cc2)c1 [Compound 1, 1-(2,6-diisopropylphenyl)-3-[3-(4-nitrobenzyloxy)benzyl]urea]",inhibition at 0.1 µM,ACAT in J774 cells,86.3 ± 1.58%
same,inhibition at 0.1 µM,[1],0%

# From patent publication US5922767A, “Substituted benzylurea derivatives and medicine containing the same” (SS Pharmaceutical Co., Ltd., priority 1996, dated 1999)
